Results taken from patent US20210252159A1, “CONJUGATES OF CARTILAGE-HOMING PEPTIDES” (priority 2018, published 2021).
Like-named read-outs stand apart in the source and are kept apart here. Positions of bridges follow the written chain, without caps; N, C: chain ends. Residues, ends and D or L forms follow the SMILES beside them. *: point of attachment. X6 = C[C@@H]1C[C@H]2[C@@H]3CCC4=CC(=O)C=C[C@]4(C)[C@@]3(F)[C@@H](O)C[C@]2(C)[C@@]1(O)C(=O)COC(=O)CC1(CC(=O)*)CCCC1; X5 = C[C@@H]1C[C@H]2[C@@H]3CCC4=CC(=O)C=C[C@]4(C)[C@@]3(F)[C@@H](O)C[C@]2(C)[C@@]1(O)C(=O)COC(=O)CCCCC(=O)*

Columns and labels:
[1] = Hydrolysis assay of peptide-drug conjugates in rat plasma (free drug by LC/MS); assay type: in vitro ADME; conditions: 37° C.
Protocol: Peptide-drug conjugate peptide(SEQ ID NO: 105)-DMA-dCIC was incubated in rat plasma at 37° C. Samples were removed at regular intervals, processed by solvent extraction, and analyzed by LC/MS to quantitate free dCIC. 11 time-points were measured between 5 min and 56 hours with 3 replicates per time point. The assay was repeated two times.
In order to determine hydrolysis rates, conjugates can be diluted in PBS, rat plasma, or human plasma and incubated at 37 degrees. Samples can be taken at designated time-points (e.g., 1, 2, 3, 5, 10, 15, 20, 25, 30, 45, 60, or 90 minutes and/or hours after administration). Internal standards such as triamcinolone acetonide (TAA) can be added as an internal standard, and then active agent/TAA can be extracted using acetonitrile, for example. The samples can be dried down, reconstituted, and analyzed by LC/MS. Data can be normalized using Dex AUC/TAA AUC. Percent hydrolysis can be calculated using the average ratio for active agent AUC/TAA AUC at a time point of maximal drug release. A general method can include using a lyophilized, purified peptide-drug conjugates reconstituted in DMSO following production to generate stock solution at 20 mg/mL. Each conjugate stock can be brought to 0.25 mg/mL in each hydrolysis condition (1×DPBS, human plasma and rat plasma) in triplicate and rocked at 37° C. To quantitate free active agent, 100 μl of the hydrolyzed conjugate solution can be transferred into 1 mL acetonitrile at 4° C. at which time all plasma proteins and intact conjugates can precipitate. This can be performed repeatedly to generate a series of time points (0 hr, 0.5 hr, 1 hr, 2 hr, 4 hr, 6 hr, 8 hr, 24 hr, 32 hr). The acetonitrile solution can be spun at 17,000 g for 5 minutes, and the supernatant removed and added to a 96 well block. The pellet can then be resuspended in 500 μl acetonitrile and re-pelleted as before. The supernatant can be removed and added to the same well in the block. Samples can be prepared for analysis by drying under a nitrogen stream followed by reconstitution in 110 μl 45:55 ACN:Citrate 10 mM pH 5.5. To ensure optimal recovery the block can be shaken via plate shaker at 7,000 rpm for 5 minutes during the reconstitution step. Prior to LC/MS the samples can be transferred to a 96 well plate and centrifuged at 6,500 g for 15 minutes. Analysis can be performed on an Agilent 1260 Infinity series HPLC with inline 6120 single quad MS using acetonitrile, water (+0.1% TFA) gradient (shown below) on an InfinityLab Poroshell SB-C18 column. Quantification of free active agent (or drug) can be achieved through integration of active agent peaks of the TIC.
Lyophilized, purified peptide-drug conjugates were reconstituted in DMSO following production to generate stock solution at 20 mg/mL. Each conjugate stock was brought to 0.25 mg/mL in each hydrolysis condition (1×DPBS, human plasma and rat plasma) in triplicate and rocked at 37° C.
To quantitate free dexamethasone (Dex), 100 μl of the hydrolyzed conjugate solution was transferred into 1 mL acetonitrile at 4° C. at which time all plasma proteins and intact conjugates precipitated. This was performed repeatedly to generate a series of time points (0 hr, 0.5 hr, 1 hr, 2 hr, 4 hr, 6 hr, 8 hr, 24 hr, 32 hr). The corticosteroid triamcinolone acetonide (25 μl, 0.1 mg/mL in 45:55 ACN:Citrate 10 mM pH 5.5) was supplemented into the acetonitrile solution as an internal standard. The acetonitrile solution was spun at 17,000 g for 5 minutes, and the supernatant removed and added to a 96 well block. The pellet was resuspended in 500 μl acetonitrile and re-pelleted as before. The supernatant was removed and added to the same well in the block.
Samples were prepared for analysis by drying under a nitrogen stream followed by reconstitution in 110 μl 45:55 ACN:Citrate 10 mM pH 5.5. To ensure optimal recovery the block was shaken via plate shaker at 7,000 rpm for 5 minutes during the reconstitution step. […]

CIA rats = assay type: in vivo
Protocol: Ankle diameter measurements were recorded daily starting on induction day 9 and continuing for the duration of the study. […] Each treatment was administered on the day of enrollment (study day 0) and repeated daily for 7 days (study day 6). Rats were euthanized 3 h after the final dose and blood and organs were collected for testing.

[2] = IL-1β challenge rat model, dose-ranging study: CBC, organ weights, tolerability; assay type: in vivo, rats; conditions: 7 hours post administration
Protocol: IL-6 was measured in knee lavage fluid using a Luminex assay and levels were normalized to total protein in the lavage fluid (FIG. 24). Assessment of the PD inflammatory marker IL-6 in the knee joints of rats challenged with IL-1β was performed. Terminal synovial fluid was collected from all animals and analyzed by Luminex 200 for IL-6 cytokine concentrations using EMD Milliplex MAP Rat Cytokine/Chemokine Magnetic Panel ([…]-65K). […] Doses are listed as nmol/kg The masses of these doses are given below in TABLE 16. Two hours and forty-five minutes (i.e., 2.75 hrs) after administration of the test agents, animals were gently heated and blood was drawn from the tail vein for CBC analysis. Animals were then anesthetized with inhaled isoflurane and injected with 30 ng of IL-1β into the right knee (except for no IL-1β group). Four hours after administration of IL-1β (seven hours after administration of test agent) the animals were euthanized. Blood was drawn for a second CBC analysis and the right knee was lavaged for detection of IL-6 in the lavage fluid using a Luminex assay. Thymus and spleen were harvested and their organ weights determined.
In the same animals for which IL-6 secretion was measured, CBC data (e.g., lymphocyte counts) were also analyzed (FIG. 25) at an early time-point, 2.75 hrs post administration of the test article (FIG. 25A), and at euthanasia 7 hrs post administration (FIG. 25B). All treatments were administered as described above for the measurement of IL-6 secretion.
All treatments and test articles were administered as described above, except for an additional treatment group that received 510 nmol/kg of the peptide-drug conjugate peptide(SEQ ID NO: 105)-DMA-dCIC.

[3] = in rat plasma, free Dex, read-out: Hydrolysis half-life (converted)
[4] = 0.05 mg/kg daily for 7 days, study day 6

SMILES | half-life at 0.25 mg/mL [1, 3] [h] | half-life at 0.25 mg/mL ([1]; Rat Plasma, release of free Dex, time points to 32 hr, read-out: Half-life (hours) as measured in the hydrolysis experiments (converted)) [h] | ankle diameter on study day 6 versus day 0, compared to vehicle (CIA rats; 0.05 mg/kg) | plasma lymphocyte counts as compared to vehicle (CIA rats; [4]) | spleen weight as compared to vehicle (CIA rats; [4]) | thymus weight as compared to vehicle (CIA rats; [4]) | ankle inflammation (CIA rats; highest dose of 0.05 mg/kg daily for 7 days) | ankle inflammation (CIA rats; lower doses (0.001, 0.005, 0.01 mg/kg) daily for 7 days) | spleen and thymus weights at euthanasia [2]
CC[C@H](C)[C@@H]1NC(=O)[C@@H]2CSSC[C@H](NC(=O)[C@H](CCCNC(=N)N)NC(=O)[C@@H](NC(=O)[C@H](CC(N)=O)NC(=O)[C@@H](NC(=O)[C@@H]3CCCN3C(=O)[C@@H](NC(=O)CNC(=O)[C@H](CO)NC(=O)CNC(=O)CC3(CC(=O)OCC(=O)[C@@]4(O)[C@H](C)C[C@H]5[C@@H]6CCC7=CC(=O)C=C[C@]7(C)[C@@]6(F)[C@@H](O)C[C@@]54C)CCCC3)C(C)C)[C@@H](C)CC)C(C)C)C(=O)N[C@@H](CCCNC(=N)N)C(=O)NCC(=O)N[C@@H](CO)C(=O)N[C@@H](CCCNC(=N)N)C(=O)N[C@@H](CC(=O)O)C(=O)N[C@H]3CSSC[C@H](NC(=O)[C@H](CCCNC(=N)N)NC(=O)[C@H](CO)NC(=O)[C@H](CC(N)=O)NC1=O)C(=O)N[C@@H](Cc1c[nH]cn1)C(=O)N[C@H](C(=O)N[C@H](C(=O)N1CCC[C@H]1C(=O)O)[C@@H](C)O)CSSC[C@H](NC(=O)[C@@H]1CCCN1C(=O)[C@H](CC(=O)O)NC(=O)[C@H](CC(C)C)NC3=O)C(=O)N[C@@H](CCCNC(=N)N)C(=O)N[C@@H](CCCNC(=N)N)C(=O)N[C@@H](C)C(=O)NCC(=O)N[C@@H](CCSC)C(=O)N[C@@H](CCCNC(=N)N)C(=O)N[C@@H](Cc1ccccc1)C(=O)NCC(=O)N[C@@H](CCCNC(=N)N)C(=O)N2 [Compound 26, Peptide(SEQ ID NO: 105)-3,3,-tetramethylene-glutaric acid-Dex] (X6-GSGVPINVRCRGSRDCLDPCRRAGMRFGRCINSRCHCTP-OH; disulfide 10-30, 16-35, 20-37 (inferred); C-terminus assumed) | 1.1 | – | – | – | – | – | – | – | –
CC[C@H](C)[C@@H]1NC(=O)[C@@H]2CSSC[C@H](NC(=O)[C@H](CCCNC(=N)N)NC(=O)[C@@H](NC(=O)[C@H](CC(N)=O)NC(=O)[C@@H](NC(=O)[C@@H]3CCCN3C(=O)[C@@H](NC(=O)CNC(=O)[C@H](CO)NC(=O)CNC(=O)CCCCC(=O)OCC(=O)[C@@]3(O)[C@H](C)C[C@H]4[C@@H]5CCC6=CC(=O)C=C[C@]6(C)[C@@]5(F)[C@@H](O)C[C@@]43C)C(C)C)[C@@H](C)CC)C(C)C)C(=O)N[C@@H](CCCNC(=N)N)C(=O)NCC(=O)N[C@@H](CO)C(=O)N[C@@H](CCCNC(=N)N)C(=O)N[C@@H](CC(=O)O)C(=O)N[C@H]3CSSC[C@H](NC(=O)[C@H](CCCNC(=N)N)NC(=O)[C@H](CO)NC(=O)[C@H](CC(N)=O)NC1=O)C(=O)N[C@@H](Cc1c[nH]cn1)C(=O)N[C@H](C(=O)N[C@H](C(=O)N1CCC[C@H]1C(=O)O)[C@@H](C)O)CSSC[C@H](NC(=O)[C@@H]1CCCN1C(=O)[C@H](CC(=O)O)NC(=O)[C@H](CC(C)C)NC3=O)C(=O)N[C@@H](CCCNC(=N)N)C(=O)N[C@@H](CCCNC(=N)N)C(=O)N[C@@H](C)C(=O)NCC(=O)N[C@@H](CCSC)C(=O)N[C@@H](CCCNC(=N)N)C(=O)N[C@@H](Cc1ccccc1)C(=O)NCC(=O)N[C@@H](CCCNC(=N)N)C(=O)N2 [Compound 24, Peptide(SEQ ID NO: 105)-adipic acid-Dex] (X5-GSGVPINVRCRGSRDCLDPCRRAGMRFGRCINSRCHCTP-OH; disulfide 10-30, 16-35, 20-37 (inferred); C-terminus assumed) | 2.6 | 2.8 | – | – | – | – | – | – | –
C[C@@H]1C[C@H]2[C@@H]3CCC4=CC(=O)C=C[C@]4(C)[C@@]3(F)[C@@H](O)C[C@]2(C)[C@@]1(O)C(=O)COP(=O)(O)O [DexSP, Dexamethasone sodium phosphate, reference compound] | – | – | statistically different than vehicle | significantly reduced | significantly reduced | significantly reduced | effective at reducing ankle inflammation | indistinguishable from vehicle | reduction in the weight of both organs
